# Test system: HaCaT cells
# Experiment: Scratch wound experiment with cell division inhibitor mitomycin C
# Assay type: cell-based
# Details: 48 hours; 20 μmol/L mitomycin C before treatment with 0.125% v/v extract
# Text: Evaluation of the effect of mitomycin C in wound healing repair. […] 20 μmol/L of Mitomycin C was applied before each treatment.
# The application of mitomycin inhibits division of the HaCaT cells that, together with cell migration, are the two mechanisms involved in wound healing repair.
compound,measurement,value
CO[C@@]12[C@H](COC(N)=O)C3=C(C(=O)C(C)=C(N)C3=O)N1C[C@@H]1N[C@@H]12 [mitomycin C],effect on wound closure induced by Alerce cell culture extract,significantly inhibited the wound closure

# — patent US20210338755A1, “AQUEOUS EXTRACT FROM CELLS OF FITZROYA CUPRESSOIDES (ALERCE) WITH ANTI- AGING AND SKIN REGENERATION PROPERTIES” (RUBISCO BIOTECHNOLOGY, priority 2018, published 2021)
